Key:
[1] = Brain penetration study in rat (Kp,uu,brain); type: in vivo; details: brain and plasma (unbound); 7-week-old SD-type or WKY-type rat; subcutaneous or oral administration; plasma and brain collected 0.5, 1 or 2 hours after administration; LC-MS; read-out: Kp,uu,brain (Unbound brain-to-plasma drug concentration ratio)
Method: In this study, the brain penetration of the present compounds can be evaluated. Specifically, a 7-week-old SD-type or WKY-type rat received the subcutaneous administration of a solution of the present compound in saline or the oral administration of a suspension of the present compound in methylcellulose. Plasma and brain were collected from the treated rat 0.5 hour, 1 hour or 2 hours after the administration, and then the concentrations of the present compound in the plasma and the brain were measured by a LC-MS method.
The protein binding ratios of the present compound to the plasma and the brain were measured by an equilibrium dialysis method.
The concentrations of the present compound in the plasma and the brain as well as the plasma and brain protein binding ratios are applied to the following formula, and thus Kp,uu,brain (Unbound brain-to-plasma drug concentration ratio) can be calculated.
Kp,uu,brain=(the concentration of the present compound in the brain×(100−the brain protein binding ratio (%))/100)/(the concentration of the present compound in the plasma×(100−the plasma protein binding ratio (%))/100)

[2] = target: T1, human brain-derived dopamine D4 receptor (Homo sapiens, UniProt P21917); assay: Agonistic activity in G protein dependent pathway of dopamine D4 receptor (aequorin intracellular calcium luminescence, FDSS); type: cell-based; details: for EC50: concentration required to achieve a 50% response of Emax, CHO-K1 or HEK293 cells transfected with D4 receptor; for Emax: read-out: Maximal activity on D4 receptor (%)
T1 construct: expressed in transfected cells; host or cells: CHO (CHO-K1) or HEK293 cells
T1 sequence (P21917 1-419): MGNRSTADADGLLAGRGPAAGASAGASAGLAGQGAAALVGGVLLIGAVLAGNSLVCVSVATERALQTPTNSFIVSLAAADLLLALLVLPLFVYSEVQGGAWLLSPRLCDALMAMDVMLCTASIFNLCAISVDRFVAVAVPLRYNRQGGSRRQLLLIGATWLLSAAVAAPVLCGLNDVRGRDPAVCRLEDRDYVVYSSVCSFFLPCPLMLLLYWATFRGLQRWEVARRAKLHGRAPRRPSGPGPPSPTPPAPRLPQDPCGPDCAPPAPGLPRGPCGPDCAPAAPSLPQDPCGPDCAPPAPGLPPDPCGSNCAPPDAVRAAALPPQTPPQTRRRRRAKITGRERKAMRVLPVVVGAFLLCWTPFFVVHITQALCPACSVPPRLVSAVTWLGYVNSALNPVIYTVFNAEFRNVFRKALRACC
How it was run: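 CHO-K1 or HEK293 cells transfected with D4 receptor, cultured 24 h at 37 °C, preloaded with coelenterazine; aequorin luminescence recorded on FDSS after compound addition. Emax taken as maximal activity; EC50 as concentration giving 50% of Emax.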

| SMILES | Kp uu [1] | EC50 [2] [nM] | Emax [2] [%] |
| --- | --- | --- | --- |
| Fc1cccnc1-c1cc2n(n1)CCN(Cc1ccc3c(n1)CCC3)C2 [Example 129] | 0.58 | 14 | 91 |
| Cc1c(-c2ncccc2F)nn2c1CN(Cc1ccc(C(F)(F)F)cn1)CC2 [Example 128] | 0.6 | 36 | 86 |
| Cc1ncc(CN2CCn3nc(-c4ncccc4C)c(C)c3C2)cn1 [Example 116] | 1.42 | 131 | 67 |
| Cc1cccnc1-c1cc2n(n1)CCN(Cc1nc3ccccc3[nH]1)C2 [Example 144] | 0.79 | 41 | 49 |
| Cc1cccnc1-c1cc2n(n1)CCN(Cc1ccc3c(n1)CCC3)C2 [Example 113] | 0.77 | 13 | 104 |
| Cc1ncc(CN2CCn3nc(-c4ccccn4)cc3C2)c(N)n1 [Example 22, 2-Methyl-5-{[2-(pyridin-2-yl)-6,7-dihydropyrazolo[1,5-a]pyrazin-5(4H)-yl]methyl}pyrimidine-4-amine] | 0.2 | 109 | 62 |
| Cc1cccnc1-c1cc2n(n1)CCN(Cc1n[nH]c3ccc(F)cc13)C2 [Example 44] |  | 26 | 98 |
| Cc1ccc(CN2CCn3nc(-c4ncccc4C)c(C)c3C2)nc1 [Example 114] |  | 64 | 93 |

Reference: patent US20160318933A1, “FUSED PYRAZOLE DERIVATIVE” (SUMITOMO DAINIPPON PHARMA CO., LTD., priority 2013, published 2016)
